Measurements published in US20180325151A1, “METHOD OF PRODUCING INSTANT GINSENG CHICKEN SOUP PRODUCT” (HARIM CORPORATION, priority 2017, published 2018).

Key:
colon bacteria = experiment: Microorganism growth inhibition: number of colon bacteria on Chromocult medium; format: cell-based; conditions: time 24 (hours); stored at 25° C.; ND = Not observed
Procedure: (§1) A chicken in instant ginseng chicken soup (product of Harim) was boiled, washed twice with cold water, and then dehydrated for 1 minute. 10 g of boiled instant ginseng chicken soup was dipped in 100 ml of solution for 30 seconds, dehydrated for 30 seconds on a strainer, held in a petri dish, and then stored at 25° C. For counting the total number of bacteria, the number of colonies resulting from culturing for 48 hours at 37° C. using a plate count agar was counted and indicated with colony forming unit (CFU)/ml. For counting the number of colon bacteria, the experiment was conducted in the same way for counting the total number of bacteria using a Chromocult (merck) medium. In this case, distilled water as a control group and (F)rhodinic acid were used.

total number of bacteria = experiment: Microorganism growth inhibition: total number of bacteria on plate count agar; format: cell-based; conditions: boiled soup chicken dipped 30 seconds in solution, stored at 25° C.
Procedure: as §1

CC(C)=CCCC(C)CC(=O)O (centres unmarked) [F (rhodinic acid), rhodinic acid]
Number of colon bacteria (colon bacteria): no colon bacteria were detected | Total number of bacteria (total number of bacteria; time 0): 6.7 × 10^2 CFU/ml | Total number of bacteria (total number of bacteria; time 18): 10 × 10^5 CFU/ml | Total number of bacteria (total number of bacteria; time 24 (hours)): 8.9 × 10^6 CFU/ml | Total number of bacteria (total number of bacteria; time 24 (hours), listed as (F)rhodinic acid): up to 10^6 CFU/ml
